Source: article PMC5656653, “Evaluation of Ga-DOTA-(D-Asp)n as bone imaging agents: D-aspartic acid peptides as carriers to bone” (Scientific Reports, 2017)
“Also recorded” adds a separate entry of the source.

Assay: Biodistribution experiments in normal mice after i.v. injection
Type: in vivo
Details: i.v.; for Biodistribution of radioactivity, Blood / Biodistribution of radioactivity, Bone (Femur) / Biodistribution of radioactivity, Brain / Biodistribution of radioactivity, Heart / Biodistribution of radioactivity, Kidney / Biodistribution of radioactivity, Large-intestine / Biodistribution of radioactivity, Liver / Biodistribution of radioactivity, Lung / Biodistribution of radioactivity, Muscle / Biodistribution of radioactivity, Pancreas / Biodistribution of radioactivity, Small-intestine / Biodistribution of radioactivity, Spleen / F/B ratio (Femur:blood ratio) / Biodistribution of radioactivity, Stomach: mice, mean (SD); for Biodistribution of radioactivity, Stomach: footnote b
Method: Experiments with animals were conducted in strict accordance with the Guidelines for the Care and Use of Laboratory Animals of Kanazawa University. The animal experimental protocols used were approved by the Committee on Animal Experimentation of Kanazawa University (Permit Number: AP-132633). Biodistribution experiments were performed after intravenous administration of each diluted tracer solution (37–740 kBq/100 μL) to 6-week-old male ddY mice (27–32 g, Japan SLC, Inc., Hamamatsu, Japan). Four or five mice at each time point after the administration of each compound were sacrificed by decapitation at 10, 60, and 180 min post-injection. Tissues of interest were taken and weighed. Complete left femurs were isolated as representative bone samples, radioactivity was determined using gamma counters (AccuFLEX γ ARC-8001 in the case of ^18F, Hitachi, Ltd.), and background counts and physical decay were corrected during counting.

With `[18F-].[Na+]` [[^18F]NaF, reference compound] the “Biodistribution of radioactivity, Blood” value (10 min after injection) was 1.78 (0.23) % injected dose, the “Biodistribution of radioactivity, Bone (Femur)” value (“Biodistribution … (Femur)” for short) (10 min after injection) was 27.69 (3.15) % injected dose and the “Biodistribution of radioactivity, Brain” value (10 min after injection) was 0.10 (0.02) % injected dose. For the same compound, the “Biodistribution of radioactivity, Heart” value (10 min after injection) was 1.84 (0.41) % injected dose, the “Biodistribution of radioactivity, Kidney” value (10 min after injection) was 5.23 (2.31) % injected dose and the “Biodistribution of radioactivity, Large-intestine” value (“Biodistribution … Large-intestine” below) (10 min after injection) was 0.95 (0.22) % injected dose. The “Biodistribution of radioactivity, Liver” value (10 min after injection) was 1.34 (0.17) % injected dose, the “Biodistribution of radioactivity, Lung” value (10 min after injection) was 1.44 (0.19) % injected dose and the “Biodistribution of radioactivity, Muscle” value (10 min after injection) was 0.83 (0.13) % injected dose. The “Biodistribution of radioactivity, Pancreas” value (“Biodistribution … Pancreas” for short) (10 min after injection) was 0.87 (0.15) % injected dose, the “Biodistribution of radioactivity, Small-intestine” value (shortened to “Biodistribution … Small-intestine”) (10 min after injection) was 1.31 (0.22) % injected dose and the “Biodistribution of radioactivity, Spleen” value (10 min after injection) was 1.10 (0.15) % injected dose. For the same compound, the “F/B ratio (Femur:blood ratio)” value (10 min after injection) was 15.59 (1.01), the “Biodistribution of radioactivity, Stomach” value (shortened to “Biodistribution … Stomach”) (10 min after injection) was 0.36 (0.04) % injected dose and the “Biodistribution of radioactivity, Blood” value (60 min after injection) was 0.11 (0.04) % injected dose. The “Biodistribution … (Femur)” value (60 min after injection) was 39.96 (2.52) % injected dose, the “Biodistribution of radioactivity, Brain” value (60 min after injection) was 0.36 (0.52) % injected dose and the “Biodistribution of radioactivity, Heart” value (60 min after injection) was 0.15 (0.05) % injected dose. For the same compound, the “Biodistribution of radioactivity, Kidney” value (60 min after injection) was 1.13 (0.89) % injected dose, the “Biodistribution … Large-intestine” value (60 min after injection) was 1.21 (0.27) % injected dose and the “Biodistribution of radioactivity, Liver” value (60 min after injection) was 0.09 (0.02) % injected dose. For the same compound, the “Biodistribution of radioactivity, Lung” value (60 min after injection) was 0.10 (0.03) % injected dose, the “Biodistribution of radioactivity, Muscle” value (60 min after injection) was 0.07 (0.04) % injected dose and the “Biodistribution … Pancreas” value (60 min after injection) was 0.08 (0.08) % injected dose. The “Biodistribution … Small-intestine” value (60 min after injection) was 0.68 (0.10) % injected dose, the “Biodistribution of radioactivity, Spleen” value (60 min after injection) was 0.08 (0.02) % injected dose and the “F/B ratio (Femur:blood ratio)” value (60 min after injection) was 381.63 (84.17). The “Biodistribution … Stomach” value (60 min after injection) was 0.06 (0.02) % injected dose, the “Biodistribution of radioactivity, Blood” value (180 min after injection) was 0.02 (0.00) % injected dose and the “Biodistribution … (Femur)” value (180 min after injection) was 43.91 (2.64) % injected dose. The “Biodistribution of radioactivity, Brain” value (180 min after injection) was 0.05 (0.02) % injected dose, the “Biodistribution of radioactivity, Heart” value (180 min after injection) was 0.02 (0.01) % injected dose and the “Biodistribution of radioactivity, Kidney” value (180 min after injection) was 0.15 (0.08) % injected dose. For the same compound, the “Biodistribution … Large-intestine” value (180 min after injection) was 1.39 (0.19) % injected dose, the “Biodistribution of radioactivity, Liver” value (180 min after injection) was 0.02 (0.00) % injected dose and the “Biodistribution of radioactivity, Lung” value (180 min after injection) was 0.03 (0.01) % injected dose. The “Biodistribution of radioactivity, Muscle” value (180 min after injection) was 0.01 (0.01) % injected dose, the “Biodistribution … Pancreas” value (180 min after injection) was 0.02 (0.03) % injected dose and the “Biodistribution … Small-intestine” value (180 min after injection) was 0.06 (0.02) % injected dose. The “Biodistribution of radioactivity, Spleen” value (180 min after injection) was 0.02 (0.00) % injected dose, the “F/B ratio (Femur:blood ratio)” value (180 min after injection) was 1983.88 (256.88) and the “Biodistribution … Stomach” value (180 min after injection) was 0.13 (0.14) % injected dose. For the same compound, the “Accumulation of radioactivity in bone (in words)” value (normal mice) was “high accumulation and retention of radioactivity in bone; also recorded: highest bone uptake”.
